A short description of series [1]: Clarity of oral gel phase batches: absorbance at 610 nm (Lambda 25 UV/VIS), original and diluted. The following applies: for Absorbance: 610 nm. Type of series: physicochemical. As for the experimental part:
The clarity of samples with different actives is compared, and the precipitation characteristic of ZLC gel phase by dilution is evaluated. […] Zinc ion concentration in the following batches are all prepared at 0.5% (w/w) zinc level.
Lambda 25 UV/VIS Spectrometer (PerkinElmer) is used to obtain absorbance information for all samples in order to compare the clarity of gel phase between different actives. Absorbance is a logarithmic measure of the amount of light that is absorbed when passing through a substance. Since the particles in the gel absorb light, the more particles existing in solution, the more light absorbed by the gel. Thus, a small number of absorbance of a gel indicates a higher clarity. The absorbance is corrected by using deionized (DI) water as the blank solution under the light source wavelength of 610 nm.

The nature of series [2]: pH of oral gel phase batches, original and diluted. Type of series: physicochemical. As to conditions: original gel phase batch with the named active.
Series [3] is described as follows: Turbidity (percent transmission, TurbiScan) of mouthwash batches, original and diluted. The following applies: zinc 1.01 wt %. The class given is physicochemical. As for the experimental part:
Four 500 g mouthwash batches which contain NaF, ZLC, ZnCl2 and ZnO as active ingredient are formulated with the ingredients shown in Table 1. The objective of this study is to compare the clarity of samples with different actives. Turbidity is evaluated by the percent transmission of light through the solution as measured by a TurbiScan® dispersion stability analyzer. The higher the percent transmission, the more transparent the composition. […] The concentration of zinc ions in ZLC solution is 25300 ppm obtained by ICP (Inductively Coupled Plasma) analysis, which corresponds to approximately 17% weight of ZLC actives in the solution. Zinc ion concentration in all batches is controlled to same level, i.e., 1.01 wt %. Among the four batches, the one that has ZnO as active appears milk white, with 0% transmission, while the other three samples are as clear as the deionized water (Table 2).
All original mouthwash batches are diluted into 2 fold, 4 fold, 8 fold, 16 fold and 32 fold. Turbidity measurements are performed after all solutions are prepared and well shaken. The turbidity data of the samples are shown in Table 3, 4, 5 and 6, for the dilutions of mouthwash containing NaF, ZLC, ZnCl2 and ZnO respectively.

A short description of series [4]: Dilution experiment of ZLC neat solution: visible flocculation/precipitation at 37° C. Type of series: physicochemical. As for the experimental part: Various dilutions of ZLC are prepared to evaluate its efficiency in producing visible precipitates and/or flocculation, which can be delivered in situ onto an oral surface or into a dental opening, such as open tubules.
(§1) A neat solution of ZLC is prepared by 1), reacting 0.5 mole of ZnO powder with 1 mole of lysine HCl in 1 liter of water at room temperature for about 2 hours, and 2) collecting the supernatant through centrifugation followed by filtration using a 0.45 micron membrane. The neat solution has a zinc concentration of 2.39% by weight, and a pH of about 7.03.
(§2) Dilution experiment is conducted by mixing the neat solution with deionized water. The neat solution is diluted by 2×, 4×, 6×, 7×, 8×, 10×, 12×, 16×, 20×, 24×, 28×, and 32×, corresponding to initial zinc concentrations of 1.20%, 0.598%, 0.398%, 0.341%, 0.299%, 0.239%, 0.199%, 0.149%, 0.120%, 0.0996%, 0.0854%, 0.0747%, by weight, respectively. The diluted samples are kept at 37° C., and the rates at which flocculation/precipitation occurred are monitored.

Series [5] can be described thus: pH of ZLC neat solution and final diluted samples. The class given is physicochemical. The following applies: neat solution, zinc 2.39% by weight. As to the method: as §1, §2
pH values of final diluted samples are suitable for oral care applications. […] These pH values were well within the range of 5.5 to 10, which defines the suitable range for oral care formulations.

Series [6] is described as follows: Deposition/occlusion assay on dentine slices, confocal imaging. Also noted: species or system human. As to the method: The deposition/occlusion assay is conducted using human dentine slices and the neat solution of Example 5. The dentine slices were prepared by cutting human tooth into thin dentine sections of about 800 microns in thickness, choosing a test side, sanding said test side using a sandpaper of about 600 grit, polishing said test side using a Buehler polishing cloth and 5 micron Buehler aluminum oxide, acid-etching said dentine section in 1% (by weight) citric acid solution for about 20 seconds, sonicating said dentine section for 10 minutes, and storing said dentine section in phosphate buffered saline (PBS, pH 7.4).
For treatment, the neat solution is diluted 16-fold with water, yielding a treatment solution with initial zinc concentration of about 0.149% by weight. The dentine section is immersed in the treatment solution for 1 hour at 37° C. The treated dentine section is then removed from the treatment solution, and rinsed 4 times, each time with 1 mL of PBS. The dentine section is then dried using a paper-based tissue and examined under confocal microscope in both XYZ and XYZ modes. Subsequent treatments are conducted in the same manner.
Dentine sections, as prepared in Example 6, are repeatedly treated with ZLC dilutions with initial zinc concentration of 0.0747% by weight. […] The dentine section is examined under the confocal microscope after each treatment.

[7] abbreviates: gel phase batch, 2 fold dilution.
[8] abbreviates: gel phase batch, 4 fold dilution.
Where [9] appears, read: gel phase batch, 8 fold dilution.
The mark [10] stands for this setting: gel phase batch, 16 fold dilution.
[11] abbreviates: gel phase batch, 32 fold dilution.
The mark [12] stands for this setting: original gel phase batch with the named active, DI water blank, 0.5% (w/w) zinc.
Where [13] appears, read: original gel phase batch with the named active.
The mark [14] stands for this setting: initial zinc 0.0747% (32-fold dilution), 10 minutes at 37° C. each.
Setting [15] is: neat solution diluted 16-fold, zinc about 0.149%, 1 hour at 37° C. each.

Turning to `[F-].[Na+]` [NaF, Sodium Fluoride], the Absorbance is recorded as 0.0106 in series [1] (setting [7]); 0.0104 in series [1] (setting [8]); 0.0107 in series [1] (setting [9]); 0.0075 in series [1] (setting [10]); 0.0137 in series [1] (setting [11]); 0.0344 in series [1] (setting [12]). In series [2], this compound came in with a pH of 7.63.

As for `[Cl-].[Cl-].[Zn+2]` [ZnCl2], the Absorbance in series [1] (setting [7]) came out at 0.7315; in series [1] (setting [8]) it was 0.3700; in series [1] (setting [9]) it was 0.1701; in series [1] (setting [10]), 0.0570; in series [1] (setting [11]), 0.0280; in series [1] (setting [12]), 0.9204. Besides, in series [1] (setting [13]), the “Appearance / dissolution of active in gel phase” value (“Appearance / dissolution” below) was “cloudy”. The pH in series [2] stood at 5.25.

Consider `[O]=[Zn]` [ZnO], for which the Absorbance in series [1] (setting [7]) is on record as 2.4630; in series [1] (setting [8]) it was 2.5340; in series [1] (setting [9]), 2.1883; in series [1] (setting [10]), 1.8638; in series [1] (setting [11]) it was 1.0492; in series [1] (setting [12]) it was 2.4626. For the same compound, the “Appearance / dissolution” value in series [1] (setting [13]) is on record as “not dissolved”. The “Appearance / clarity of mouthwash batch” value in series [3] (original mouthwash batch with the named active) is recorded as “milk white”. Besides, the “Turbidity (% Transmission)” value in series [3] (original mouthwash batch, undiluted) is on record as 0%. Besides, the pH in series [2] was determined as 8.30.

In the case of [Zn(C6H14N2O2)2Cl]^+Cl^− [ZLC], the “Flocculation observation two hours after mixing” value in series [4] (additional sample with initial zinc concentration 0.299%) is reported as “presence of flocculation”. The “Flocculation/precipitation observation after a total of 19 hours” value in series [4] (all samples except initial zinc concentration 1.20%) is on record as “flocculation and/or precipitation can be observed”. Further, the “Time to some visible flocculation after mixing stock solution with water” value in series [4] (dilutions with initial zinc concentrations 0.149% and 0.199%) is no more than 30 min. The “Flocculation observation one and a half hours after mixing” value in series [4] (dilutions with initial zinc concentrations between 0.0747% and 0.239%) is given as “visible flocculation”. The “Flocculation observation one hour from mixing” value in series [4] (dilutions with initial zinc concentrations between 0.0854% and 0.239%) was “visible flocculation”. In addition, in series [4] (initial zinc concentrations between 0.0747% and 0.239%), the “Relative amount of precipitate after a total of 19 hours” value is reported as “the most precipitates”. In series [1] (setting [9]), this compound showed an Absorbance of 0.1860. The same compound yielded an Absorbance in series [1] (setting [10]) of 0.1336. The “Appearance / dissolution” value in series [1] (setting [13]) is “homogenous solution”. Besides, in series [1] (setting [12]), the Absorbance was determined as 0.1765. The compound further came in with a pH in series [2] of 7.37. For the same compound, in series [5], the pH result was “about 7.03”. Further, in series [6] (setting [14]), the “Deposition by confocal imaging after 4 consecutive treatments” value is listed as “significant surface deposition” and the “Deposition/occlusion by confocal imaging after 12 consecutive treatments” value was “complete surface coverage”. Moreover, the “Visible precipitation during treatment” value in series [6] (initial zinc 0.0747%, 10 minutes at 37° C.) was “no precipitation is observed by naked eyes”. Besides, the “Deposition/occlusion by confocal imaging, first treatment” value in series [6] (neat solution diluted 16-fold, zinc about 0.149%, 1 hour at 37° C.) was “noticeable deposition”. Moreover, in series [6] (setting [15]), the “Deposition/occlusion by confocal imaging, second treatment” value is given as “complete surface coverage, including blocking of substantially all tubule openings”; the “Deposition/occlusion by confocal imaging, third treatment” value was “complete surface coverage and complete blocking of tubule openings”; the “Thickness of surface deposits, second treatment” value was no less than 10 microns; the “Thickness of surface deposits, third treatment” value is no less than 25 microns.
